The values that follow come from ChEMBL document CHEMBL4818987, “Recent advances of podophyllotoxin/epipodophyllotoxin hybrids in anticancer activity, mode of action, and structure-activity relationship: An update (2010-2020)” (Eur J Med Chem, 2020).

The nature of data set [1]: Cytotoxicity against human MUM-2B cells incubated for 72 hrs by CCK8 assay. The format is functional, cell-based.
Data set [2] is described as follows: Cytotoxicity against human C918 cells incubated for 72 hrs by CCK8 assay. The note with it: C918, 72 h. The format is functional, cell-based.
A short description of data set [3]: Potency index, ratio of etoposide IC50 to test compound IC50 for antiproliferative activity against human MUM-2B cells. Type of data set: functional.
Data set [4] is described as follows: Potency index, ratio of etoposide IC50 to test compound IC50 for antiproliferative activity against human C918 cells. The format is functional.
Data set [5] has as its system HepG2. The data set can be described thus: Antiproliferative activity against human HepG2 cells incubated for 48 hrs by MTT assay. The format is functional, cell-based. The note with it: HepG2, 48 h. A general note: Formazan colour is commonly taken as a measure of viable cells.
Data set [6] in a line: Antiproliferative activity against human HCCLM3 cells incubated for 48 hrs by MTT assay. The format is functional, cell-based. The note with it: HCCLM3, 48 h.
Data set [7] has as its system HepG2. The data set can be described thus: Antitumor activity against human HepG2 cells xenografted in BALB/c nude mouse assessed as tumor weight suppression at 1 mg/kg, ip administered every 6 days for 20 days and measured every 2 days by digital caliper method relative to control. The format is functional, organism-based. The note with it: time 20 day. In general terms: Xenograft models place foreign cells or tissue in a host animal.

For data set [8], the system named is MKN-45. As to the kind of experiment: Antiproliferative activity against human MKN-45 cells incubated for 72 hrs by MTT assay. The format is functional, cell-based. Particulars: Homo sapiens, MKN-45, 72 h.
For data set [9], the system named is BGC-823. As to the kind of experiment: Potency index, ratio of etoposide IC50 to test compound IC50 for antiproliferative activity against human BGC-823 cells. The format is functional.
Data set [10] deals with BGC-823. As to the kind of experiment: Antiproliferative activity against human BGC-823 cells incubated for 72 hrs by MTT assay. Type of data set: functional, cell-based. The note with it: BGC-823, 72 h.
Data set [11] relates to MKN-45. As to the kind of experiment: Potency index, ratio of etoposide IC50 to test compound IC50 for antiproliferative activity against human MKN-45 cells. The format is functional.
Data set [12] in a line: Terminal half life in Sprague-Dawley rat at 2.5 mg/kg, iv measured after 5 to 1440 mins by LC-MS/MS analysis. Particulars: in vivo, time 5-1440 min, read-out: beta t1/2 (converted). Type of data set: ADME, organism-based.
Data set [13] is described as follows: MRT in Sprague-Dawley rat at 2.5 mg/kg, iv measured after 5 to 1440 mins by LC-MS/MS analysis. The format is ADME, organism-based. Particulars: in vivo, time 5-1440 min.
Data set [14] is described as follows: Mean initial plasma concentration in Sprague-Dawley rat at 2.5 mg/kg, iv measured after 5 to 1440 mins by LC-MS/MS analysis. The format is ADME, organism-based. Particulars: rat, plasma, iv, time 5-1440 min, dose 2.5 mg/kg, read-out: C0.
Data set [15] can be described thus: AUCinfinity in Sprague-Dawley rat at 2.5 mg/kg, iv measured after 5 to 1440 mins by LC-MS/MS analysis. The format is ADME, organism-based. Also noted: route intravenous, dose 2.5 mg/kg, time upper 1440 min, time lower 5 min. The note with it: in vivo, 2.5 mg/kg.
A short description of data set [16]: Plasma clearance in Sprague-Dawley rat at 2.5 mg/kg, iv measured after 5 to 1440 mins by LC-MS/MS analysis. Type of data set: ADME, organism-based. The note with it: time 5-1440 min, dose 2.5 mg/kg. Also noted: dose 2.5 mg/kg, time upper 1440 min, time lower 5 min.
Data set [17] concerns A549. As to the kind of experiment: Antiproliferative activity against human A549 cells incubated for 72 hrs by MTT assay. The note with it: A549, 72 h. The format is functional, cell-based.
Data set [18] relates to MCF7. As to the kind of experiment: Antiproliferative activity against human MCF7 cells incubated for 48 hrs by MTT assay. The note with it: MCF7, 48 h. Type of data set: functional, cell-based.
The test system of data set [19] is A549. As to the kind of experiment: Potency index, ratio of etoposide IC50 to test compound IC50 for antiproliferative activity against human A549 cells. The format is functional.
The subject of data set [20] is MCF7. The data set can be described thus: Potency index, ratio of etoposide IC50 to test compound IC50 for antiproliferative activity against human MCF7 cells. The format is functional.
The test system of data set [21] is SW480. As to the kind of experiment: Antiproliferative activity against human SW480 cells incubated for 48 hrs by MTT assay. The format is functional, cell-based. Particulars: SW480, 48 h.
Data set [22] has as its system SMMC-7721. The data set can be described thus: Antiproliferative activity against human SMMC-7721 cells incubated for 48 hrs by MTT assay. The note with it: SMMC-7721, 48 h. The format is functional, cell-based.
In data set [23] the test system is HL-60. The data set can be described thus: Antiproliferative activity against human HL-60 cells incubated for 48 hrs by MTT assay. The note with it: HL-60, 48 h. Type of data set: functional, cell-based.
The subject of data set [24] is SMMC-7721. The data set can be described thus: Potency index, ratio of etoposide IC50 to test compound IC50 for antiproliferative activity against human SMMC7721 cells. The format is functional.
Data set [25] has as its system SW480. The data set can be described thus: Potency index, ratio of etoposide IC50 to test compound IC50 for antiproliferative activity against human SW480 cells. The format is functional.
Data set [26] relates to HL-60. The data set can be described thus: Potency index, ratio of etoposide IC50 to test compound IC50 for antiproliferative activity against human HL60 cells. Type of data set: functional.

By IC50 is commonly meant the concentration needed to halve the response being measured. Low values mean higher potency, high ones lower potency. In the case of `COc1cc(/C=C/c2ccc(OCC(=O)O[C@H]3c4cc5c(cc4[C@@H](c4cc(OC)c(OC)c(OC)c4)[C@H]4C(=O)OC[C@@H]43)OCO5)cc2)cc(OC)c1`, the IC50 in [1] came to 0.347 µM; in [2] it was 0.081 µM. Further, the entries for the “Ratio IC50” value in [3] and in [4] were 3.6 and 34.2, respectively.

In the case of `COc1cc([C@@H]2c3cc4c(cc3[C@@H](OC(=O)CCSC(=S)N/N=C/c3ccccn3)[C@H]3COC(=O)[C@H]23)OCO4)cc(OC)c1O`, the IC50 worked out at 3.89 µM in the data set with HepG2 [5] and 11 µM in data set [6]. The Activity in the data set on HepG2 [7] came out at 93.8%.

For the compound `COc1cc([C@@H]2c3cc4c(cc3[C@H](OC(=O)/C=C(C)/C=C/C=C(C)/C=C/C3=C(C)CCCC3(C)C)[C@H]3COC(=O)[C@H]23)OCO4)cc(OC)c1OC`, the IC50 in the data set with MKN-45 [8] amounted to 0.419 µM; in the data set on BGC-823 [10] it was 0.202 µM. The “Ratio IC50” value in the data set with BGC-823 [9] and with MKN-45 [11] was 6.8 in each case.

The MRT is a mean duration of stay, worked out from the concentration-time curve. The AUC(0-inf) is total exposure, with the tail of the curve extrapolated. High values mean high exposure, low ones low exposure. A word on the clearance: it is a measure of how efficiently the substance is removed, as volume per time. `COc1cc([C@@H]2c3cc4c(cc3[C@@H](NCC(F)(F)[C@]3(O)O[C@H](CO)[C@@H](O)[C@H](O)[C@H]3O)[C@H]3COC(=O)[C@H]23)OCO4)cc(OC)c1OC`: the half-life in data set [12] was 67.8 min. In data set [13], the MRT was determined as 16.2 min. The C0 in data set [14] was 8780 ng/mL. Moreover, the area under the curve AUC(0-inf) in data set [15] was 2210 ng·h/mL. The same compound gave a clearance in data set [16] of 19 mL/min/kg.

Regarding `COc1cc([C@@H]2c3cc4c(cc3[C@@H](n3cc(CO[C@H]5O[C@H](CO)[C@H](O)[C@H](O)[C@H]5O)nn3)[C@H]3COC(=O)[C@H]23)OCO4)cc(OC)c1O`, the concentration for half-maximal inhibition (IC50) in the data set on A549 [17], in the data set with MCF7 [18], in the data set on SW480 [21], in the data set on SMMC-7721 [22] and in the data set on HL-60 [23] was 2.85 µM each time. The “Ratio IC50” value in the data set on A549 [19], in the data set with MCF7 [20], with SMMC-7721 [24], in the data set on SW480 [25] and in the data set with HL-60 [26] was 2 in each case.
